Measured values as given in the CheMixHub viscosity set.

Test: xn = mol fraction of the nth substance listed
Conditions: 101 kPa

CN(C)C=O + CCCO
viscosity [mPa·s]
Conditions | 293.15 K | 298.15 K | 303.15 K | 308.15 K | 313.15 K | 318.15 K | 323.15 K
x1 = 0.4512 | – | 1.232 | – | – | – | – | –
x1 = 0.5 | – | – | 0.893 | – | 0.764 | – | 0.655
x2 = 0.1001 | – | – | 0.7821 | 0.7366 | 0.6955 | 0.6569 | 0.6217
x2 = 0.1007 | 0.9529 | – | 0.8538 | – | 0.7741 | – | 0.7068
x2 = 0.2001 | – | – | 0.8111 | 0.7618 | 0.7167 | 0.6752 | 0.638
x2 = 0.2026 | 0.9902 | – | 0.8826 | – | 0.7929 | – | 0.7215
x2 = 0.2518 | 1.01 | – | 0.8911 | – | 0.7973 | – | 0.7241
x2 = 0.3 | – | – | 0.8451 | 0.7912 | 0.742 | 0.698 | 0.657
x2 = 0.3548 | 1.03 | – | 0.9064 | – | 0.8052 | – | 0.7257
x2 = 0.3967 | – | – | 0.8868 | 0.8273 | 0.7741 | 0.7256 | 0.6801
x2 = 0.5002 | – | – | 0.9267 | 0.8623 | 0.8042 | 0.7517 | 0.7022
x2 = 0.5007 | 1.109 | – | 0.9588 | – | 0.84 | – | 0.7422
x2 = 0.5008 | 1.127 | – | 0.977 | – | 0.8569 | – | 0.7593
x2 = 0.5981 | – | – | – | – | 0.8728 | – | –
x2 = 0.5982 | 1.175 | – | 1.01 | – | – | – | 0.7643
x2 = 0.6 | – | – | 0.9903 | 0.9169 | 0.8505 | 0.7912 | 0.7367
x2 = 0.6981 | 1.315 | – | 1.112 | – | 0.9521 | – | 0.8239
x2 = 0.7001 | – | – | 1.076 | 0.9904 | 0.9148 | 0.8466 | 0.784
x2 = 0.75 | 1.368 | – | 1.146 | – | 0.9688 | – | 0.8261
x2 = 0.7989 | 1.476 | – | 1.231 | – | 1.037 | – | 0.8829
x2 = 0.8001 | – | – | 1.204 | 1.1 | 1.008 | 0.9264 | 0.8521
x2 = 0.8981 | 1.734 | – | 1.412 | – | 1.164 | – | 0.9688
x2 = 0.9001 | – | – | 1.403 | 1.272 | 1.153 | 1.074 | 0.955
